In ChEMBL document CHEMBL3991601, “The target landscape of clinical kinase drugs” (Science, 2017):
Activity calls are given as the source filed them. Cut-off read from the data, not from the text of the source, for most assays here: actives have a measured Kd and inactives only a lower limit.

Tests used:
[1] = biological target: Protein-tyrosine kinase 2-beta (Homo sapiens, UniProt Q14289)
[2] = biological target: Mitogen-activated protein kinase kinase kinase kinase 5 (Homo sapiens, UniProt Q9Y4K4)
Mitogen-activated protein kinase kinase kinase kinase 5, sequence (Q9Y4K4 whole entry): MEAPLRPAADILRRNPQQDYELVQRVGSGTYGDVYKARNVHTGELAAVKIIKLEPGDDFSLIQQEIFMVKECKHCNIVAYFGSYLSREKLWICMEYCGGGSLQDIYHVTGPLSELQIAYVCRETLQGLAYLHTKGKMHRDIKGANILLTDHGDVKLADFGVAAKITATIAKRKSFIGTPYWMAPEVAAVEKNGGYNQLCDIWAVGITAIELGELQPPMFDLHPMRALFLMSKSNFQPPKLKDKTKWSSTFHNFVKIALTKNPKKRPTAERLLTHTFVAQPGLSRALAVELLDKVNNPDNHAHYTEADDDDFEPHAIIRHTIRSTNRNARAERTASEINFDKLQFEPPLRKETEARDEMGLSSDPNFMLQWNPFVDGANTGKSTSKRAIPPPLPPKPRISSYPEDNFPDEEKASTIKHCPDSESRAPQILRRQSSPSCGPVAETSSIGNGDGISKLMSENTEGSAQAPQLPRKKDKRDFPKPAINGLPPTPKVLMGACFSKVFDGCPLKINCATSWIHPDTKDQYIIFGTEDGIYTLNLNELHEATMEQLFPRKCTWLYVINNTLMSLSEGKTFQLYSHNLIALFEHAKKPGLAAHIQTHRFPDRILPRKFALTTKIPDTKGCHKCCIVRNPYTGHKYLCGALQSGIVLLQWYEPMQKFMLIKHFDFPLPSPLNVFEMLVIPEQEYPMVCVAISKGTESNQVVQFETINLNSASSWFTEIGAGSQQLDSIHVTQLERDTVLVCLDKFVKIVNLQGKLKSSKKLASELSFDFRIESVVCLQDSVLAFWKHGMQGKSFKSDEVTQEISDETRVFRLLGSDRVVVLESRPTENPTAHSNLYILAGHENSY

[3] = biological target: Chromodomain-helicase-DNA-binding protein 4 (Homo sapiens, UniProt Q14839)
Chromodomain-helicase-DNA-binding protein 4, sequence (Q14839 whole entry): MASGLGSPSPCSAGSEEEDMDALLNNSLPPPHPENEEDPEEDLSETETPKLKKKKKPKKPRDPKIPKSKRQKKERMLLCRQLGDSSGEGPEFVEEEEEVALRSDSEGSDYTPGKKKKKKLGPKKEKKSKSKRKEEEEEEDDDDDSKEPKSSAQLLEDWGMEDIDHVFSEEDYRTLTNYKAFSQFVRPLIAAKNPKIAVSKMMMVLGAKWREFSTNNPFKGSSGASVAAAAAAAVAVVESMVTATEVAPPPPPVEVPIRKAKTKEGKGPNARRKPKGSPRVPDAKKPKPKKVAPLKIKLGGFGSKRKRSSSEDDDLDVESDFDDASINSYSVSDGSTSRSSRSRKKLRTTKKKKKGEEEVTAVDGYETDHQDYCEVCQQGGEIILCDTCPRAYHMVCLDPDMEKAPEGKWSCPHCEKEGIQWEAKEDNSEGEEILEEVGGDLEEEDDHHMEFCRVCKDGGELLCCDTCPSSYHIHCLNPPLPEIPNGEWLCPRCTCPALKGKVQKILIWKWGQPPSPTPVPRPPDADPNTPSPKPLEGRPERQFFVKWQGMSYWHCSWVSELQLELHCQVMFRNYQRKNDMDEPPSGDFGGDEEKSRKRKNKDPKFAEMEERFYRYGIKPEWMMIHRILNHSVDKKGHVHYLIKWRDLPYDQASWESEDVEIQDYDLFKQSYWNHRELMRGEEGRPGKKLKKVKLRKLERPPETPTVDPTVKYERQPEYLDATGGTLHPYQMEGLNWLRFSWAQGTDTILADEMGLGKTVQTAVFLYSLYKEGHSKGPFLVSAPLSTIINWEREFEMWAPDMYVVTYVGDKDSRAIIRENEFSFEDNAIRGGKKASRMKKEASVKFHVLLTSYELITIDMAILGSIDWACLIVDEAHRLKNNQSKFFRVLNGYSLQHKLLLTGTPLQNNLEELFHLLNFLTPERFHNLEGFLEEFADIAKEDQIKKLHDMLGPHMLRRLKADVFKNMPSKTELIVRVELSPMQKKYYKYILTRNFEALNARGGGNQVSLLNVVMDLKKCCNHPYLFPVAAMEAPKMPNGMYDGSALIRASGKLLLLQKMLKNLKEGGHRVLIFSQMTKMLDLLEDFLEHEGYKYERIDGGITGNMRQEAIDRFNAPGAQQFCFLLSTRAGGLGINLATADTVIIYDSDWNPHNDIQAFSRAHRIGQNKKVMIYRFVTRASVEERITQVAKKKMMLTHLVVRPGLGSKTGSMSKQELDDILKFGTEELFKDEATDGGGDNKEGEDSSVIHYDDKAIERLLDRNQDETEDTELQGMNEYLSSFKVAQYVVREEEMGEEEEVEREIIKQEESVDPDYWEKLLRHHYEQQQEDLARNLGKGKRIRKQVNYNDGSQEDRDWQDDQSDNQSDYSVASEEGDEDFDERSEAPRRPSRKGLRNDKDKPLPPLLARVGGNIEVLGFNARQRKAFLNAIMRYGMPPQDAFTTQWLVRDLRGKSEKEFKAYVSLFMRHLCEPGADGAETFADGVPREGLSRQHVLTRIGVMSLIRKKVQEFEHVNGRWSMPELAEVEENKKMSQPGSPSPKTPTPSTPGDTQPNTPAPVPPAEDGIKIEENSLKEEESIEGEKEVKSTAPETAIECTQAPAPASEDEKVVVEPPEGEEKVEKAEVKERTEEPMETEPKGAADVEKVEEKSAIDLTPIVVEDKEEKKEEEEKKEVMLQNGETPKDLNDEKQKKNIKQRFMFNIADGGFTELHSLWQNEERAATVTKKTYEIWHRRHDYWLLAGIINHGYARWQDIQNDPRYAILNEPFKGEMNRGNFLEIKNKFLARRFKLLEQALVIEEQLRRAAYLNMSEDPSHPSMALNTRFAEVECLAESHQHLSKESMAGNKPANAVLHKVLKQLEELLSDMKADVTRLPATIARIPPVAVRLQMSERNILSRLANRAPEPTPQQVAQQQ

Ephrin type-A receptor 1 = biological target: T1, Ephrin type-A receptor 1 (Homo sapiens, UniProt P21709)
T1 sequence (P21709 whole entry): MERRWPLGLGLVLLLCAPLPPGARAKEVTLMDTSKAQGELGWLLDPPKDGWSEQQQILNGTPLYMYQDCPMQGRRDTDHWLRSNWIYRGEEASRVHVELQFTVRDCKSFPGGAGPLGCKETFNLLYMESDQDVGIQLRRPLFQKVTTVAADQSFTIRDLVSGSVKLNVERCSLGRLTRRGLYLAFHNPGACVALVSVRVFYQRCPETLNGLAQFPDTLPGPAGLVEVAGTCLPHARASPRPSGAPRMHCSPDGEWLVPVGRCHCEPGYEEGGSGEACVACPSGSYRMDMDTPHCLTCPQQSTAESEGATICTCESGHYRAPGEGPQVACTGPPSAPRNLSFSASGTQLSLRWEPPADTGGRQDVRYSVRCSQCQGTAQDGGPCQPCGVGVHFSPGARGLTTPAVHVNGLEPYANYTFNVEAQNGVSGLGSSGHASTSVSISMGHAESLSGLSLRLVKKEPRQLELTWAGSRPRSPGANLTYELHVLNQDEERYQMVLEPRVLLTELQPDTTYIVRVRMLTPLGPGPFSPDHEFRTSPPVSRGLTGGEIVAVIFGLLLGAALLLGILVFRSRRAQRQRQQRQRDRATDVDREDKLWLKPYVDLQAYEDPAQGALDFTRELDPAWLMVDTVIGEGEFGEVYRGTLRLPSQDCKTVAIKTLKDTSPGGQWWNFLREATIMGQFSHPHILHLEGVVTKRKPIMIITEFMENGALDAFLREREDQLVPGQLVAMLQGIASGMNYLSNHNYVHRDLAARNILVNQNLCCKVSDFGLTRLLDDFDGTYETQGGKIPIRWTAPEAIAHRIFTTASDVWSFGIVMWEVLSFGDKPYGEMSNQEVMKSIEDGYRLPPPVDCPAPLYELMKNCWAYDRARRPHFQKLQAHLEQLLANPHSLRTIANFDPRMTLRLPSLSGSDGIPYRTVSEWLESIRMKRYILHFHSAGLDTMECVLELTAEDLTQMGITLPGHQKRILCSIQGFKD

[4] = biological target: Interleukin-1 receptor-associated kinase 1 (Homo sapiens, UniProt P51617)
Interleukin-1 receptor-associated kinase 1, sequence (P51617 whole entry): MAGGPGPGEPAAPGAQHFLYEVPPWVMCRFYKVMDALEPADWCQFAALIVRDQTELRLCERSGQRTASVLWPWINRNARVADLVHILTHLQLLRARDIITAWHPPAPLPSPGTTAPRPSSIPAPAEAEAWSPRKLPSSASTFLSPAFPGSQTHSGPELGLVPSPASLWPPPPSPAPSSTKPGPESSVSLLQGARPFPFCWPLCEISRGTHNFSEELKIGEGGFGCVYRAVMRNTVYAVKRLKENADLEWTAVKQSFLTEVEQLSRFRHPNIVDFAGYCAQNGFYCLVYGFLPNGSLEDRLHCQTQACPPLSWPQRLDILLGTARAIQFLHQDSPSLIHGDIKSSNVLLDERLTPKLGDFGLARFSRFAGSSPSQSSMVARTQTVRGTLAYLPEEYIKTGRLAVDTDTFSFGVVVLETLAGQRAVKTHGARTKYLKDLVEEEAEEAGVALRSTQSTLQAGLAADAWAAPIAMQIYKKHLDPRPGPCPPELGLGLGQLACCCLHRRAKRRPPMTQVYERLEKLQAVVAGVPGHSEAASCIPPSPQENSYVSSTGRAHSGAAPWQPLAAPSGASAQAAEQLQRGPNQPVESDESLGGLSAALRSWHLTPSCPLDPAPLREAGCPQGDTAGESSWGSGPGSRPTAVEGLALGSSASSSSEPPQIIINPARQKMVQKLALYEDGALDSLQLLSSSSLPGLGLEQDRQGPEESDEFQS

[5] = biological target: Ribosomal protein S6 kinase beta-1 (Homo sapiens, UniProt P23443)
Ribosomal protein S6 kinase beta-1, sequence (P23443 whole entry): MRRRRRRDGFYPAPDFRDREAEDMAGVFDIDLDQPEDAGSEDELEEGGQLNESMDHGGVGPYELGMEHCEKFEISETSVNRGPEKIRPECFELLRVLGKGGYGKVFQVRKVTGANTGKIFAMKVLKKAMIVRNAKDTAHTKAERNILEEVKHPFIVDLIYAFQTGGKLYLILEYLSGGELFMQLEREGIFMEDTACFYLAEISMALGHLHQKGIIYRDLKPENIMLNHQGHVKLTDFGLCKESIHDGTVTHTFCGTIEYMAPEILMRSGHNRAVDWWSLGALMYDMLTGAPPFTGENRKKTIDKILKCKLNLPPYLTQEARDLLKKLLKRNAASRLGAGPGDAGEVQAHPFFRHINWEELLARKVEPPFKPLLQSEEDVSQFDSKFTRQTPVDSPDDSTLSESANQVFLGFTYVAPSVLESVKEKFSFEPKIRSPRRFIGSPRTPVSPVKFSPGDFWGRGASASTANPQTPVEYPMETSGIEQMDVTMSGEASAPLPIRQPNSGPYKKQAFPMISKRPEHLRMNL

Midasin = Midasin (Homo sapiens, UniProt Q9NU22)
[6] = biological target: Protein kinase C delta type (Homo sapiens, UniProt Q05655)
Protein kinase C delta type, sequence (Q05655 whole entry): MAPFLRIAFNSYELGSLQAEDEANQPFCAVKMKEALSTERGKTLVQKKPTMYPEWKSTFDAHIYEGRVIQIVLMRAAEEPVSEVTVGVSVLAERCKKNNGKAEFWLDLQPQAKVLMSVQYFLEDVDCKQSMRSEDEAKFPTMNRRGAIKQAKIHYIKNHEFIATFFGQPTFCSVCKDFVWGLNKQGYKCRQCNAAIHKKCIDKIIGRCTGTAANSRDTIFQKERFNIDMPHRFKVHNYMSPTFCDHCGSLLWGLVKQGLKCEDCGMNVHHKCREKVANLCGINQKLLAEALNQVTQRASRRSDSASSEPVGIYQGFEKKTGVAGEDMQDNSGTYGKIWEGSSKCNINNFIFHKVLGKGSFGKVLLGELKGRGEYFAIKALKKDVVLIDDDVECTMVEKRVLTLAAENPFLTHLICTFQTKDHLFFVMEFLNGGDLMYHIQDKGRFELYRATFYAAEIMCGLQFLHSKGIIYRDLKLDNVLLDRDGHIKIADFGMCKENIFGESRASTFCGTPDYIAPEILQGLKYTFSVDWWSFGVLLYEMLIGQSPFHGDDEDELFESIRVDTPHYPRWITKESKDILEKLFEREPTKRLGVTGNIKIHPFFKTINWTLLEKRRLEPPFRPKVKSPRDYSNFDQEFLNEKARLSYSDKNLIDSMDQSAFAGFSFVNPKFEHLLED

[7] = biological target: T2, Thyroid hormone receptor-associated protein 3 (Homo sapiens, UniProt Q9Y2W1)
T2 sequence (Q9Y2W1 whole entry): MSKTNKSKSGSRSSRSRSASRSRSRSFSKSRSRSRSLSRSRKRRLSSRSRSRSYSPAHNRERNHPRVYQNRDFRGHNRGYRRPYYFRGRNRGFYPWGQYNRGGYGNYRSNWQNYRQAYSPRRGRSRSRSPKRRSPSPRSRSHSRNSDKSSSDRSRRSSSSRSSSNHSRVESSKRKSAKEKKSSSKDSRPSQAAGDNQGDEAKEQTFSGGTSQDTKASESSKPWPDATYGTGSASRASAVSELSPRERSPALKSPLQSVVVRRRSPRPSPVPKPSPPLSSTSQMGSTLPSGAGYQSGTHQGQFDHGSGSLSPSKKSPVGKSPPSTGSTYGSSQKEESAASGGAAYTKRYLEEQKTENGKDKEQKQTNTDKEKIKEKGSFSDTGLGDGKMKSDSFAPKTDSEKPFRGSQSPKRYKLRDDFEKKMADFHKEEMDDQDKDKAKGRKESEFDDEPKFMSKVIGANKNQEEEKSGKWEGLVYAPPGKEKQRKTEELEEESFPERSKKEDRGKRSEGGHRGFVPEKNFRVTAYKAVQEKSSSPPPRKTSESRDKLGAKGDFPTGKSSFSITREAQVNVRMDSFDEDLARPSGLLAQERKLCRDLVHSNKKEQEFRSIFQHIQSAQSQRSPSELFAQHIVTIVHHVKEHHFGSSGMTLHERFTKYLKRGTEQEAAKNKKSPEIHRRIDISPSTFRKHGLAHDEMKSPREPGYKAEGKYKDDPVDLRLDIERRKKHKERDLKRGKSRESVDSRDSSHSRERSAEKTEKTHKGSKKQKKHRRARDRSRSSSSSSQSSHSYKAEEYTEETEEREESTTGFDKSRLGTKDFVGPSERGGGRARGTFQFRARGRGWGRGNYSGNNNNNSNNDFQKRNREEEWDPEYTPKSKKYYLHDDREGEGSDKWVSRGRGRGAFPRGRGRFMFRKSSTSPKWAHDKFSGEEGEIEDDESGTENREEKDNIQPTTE
Note: in the data inactive means no Kd found up to 30 µM.

Question: Which results are given for Cn1cc(-c2cnn3c(N)c(Br)c([C@@H]4CCCNC4)nc23)cn1 [SCH-900776]?
Answer: Kd [1]: > 30 µM (inactive); Kd [2]: > 30 µM (inactive); Kd [3]: > 30 µM (inactive); Kd (Ephrin type-A receptor 1): > 30 µM (inactive); Kd [4]: > 30 µM (inactive); Kd [5]: > 30 µM (inactive); Kd (Midasin): > 30 µM (inactive); Kd [6]: 1.64 µM (active); Kd [7]: > 30 µM (inactive)

Question: CO[C@H]1C[C@@H]2CC[C@@H](C)[C@@](O)(O2)C(=O)C(=O)N2CCCC[C@H]2C(=O)O[C@H]([C@H](C)C[C@@H]2CC[C@@H](O)[C@H](OC)C2)CC(=O)[C@H](C)/C=C(\C)[C@@H](O)[C@@H](OC)C(=O)[C@H](C)C[C@H](C)/C=C/C=C/C=C/1C [SIROLIMUS] was tested. Which Kd [1] did it give?
Answer: The Kd was > 30 µM (inactive).

Question: What about the Kd [2] of the same compound?
Answer: Its Kd is > 30 µM (inactive).

Question: And the Kd [3]?
Answer: The Kd was > 30 µM (inactive).

Question: And the Kd (Ephrin type-A receptor 1)?
Answer: The Kd was > 30 µM (inactive).

Question: What about the Kd [4] of the same compound?
Answer: Its Kd is > 30 µM (inactive).

Question: What about the Kd [5] of the same compound?
Answer: The Kd was > 30 µM (inactive).

Question: What about the Kd (Midasin) of the same compound?
Answer: The Kd was > 30 µM (inactive).

Question: And the Kd [6]?
Answer: The Kd was > 30 µM (inactive).

Question: What about the Kd [7] of the same compound?
Answer: The Kd was > 30 µM (inactive).

Question: For CO[C@H]1C[C@@H]2CC[C@@H](C)[C@@](O)(O2)C(=O)C(=O)N2CCCC[C@H]2C(=O)O[C@H]([C@H](C)C[C@@H]2CC[C@@H](OC(=O)C(C)(CO)CO)[C@H](OC)C2)CC(=O)[C@H](C)/C=C(\C)[C@@H](O)[C@@H](OC)C(=O)[C@H](C)C[C@H](C)/C=C/C=C/C=C/1C [TEMSIROLIMUS], which Kd [1] is on record?
Answer: The Kd was > 30 µM (inactive).

Question: What about the Kd [2] of the same compound?
Answer: Its Kd is > 30 µM (inactive).

Question: What about the Kd [3] of the same compound?
Answer: The Kd was > 30 µM (inactive).

Question: And the Kd (Ephrin type-A receptor 1)?
Answer: The Kd was > 30 µM (inactive).

Question: And the Kd [4]?
Answer: The Kd was > 30 µM (inactive).

Question: What about the Kd [5] of the same compound?
Answer: The Kd was > 30 µM (inactive).

Question: What about the Kd (Midasin) of the same compound?
Answer: The Kd was > 30 µM (inactive).

Question: What about the Kd [6] of the same compound?
Answer: The Kd was > 30 µM (inactive).

Question: And the Kd [7]?
Answer: Its Kd is > 30 µM (inactive).

Question: For COc1cc2c(Nc3ccc(Cl)c(Cl)c3F)ncnc2cc1OC[C@@H]1C[C@@H]2CN(C)C[C@@H]2C1 [TESEVATINIB], which Kd [1] is on record?
Answer: The Kd was > 30 µM (inactive).

Question: And the Kd [2]?
Answer: Its Kd is 0.908 µM (active).

Question: And the Kd [3]?
Answer: The Kd was > 30 µM (inactive).

Question: And the Kd (Ephrin type-A receptor 1)?
Answer: The Kd was 0.008 µM (active).

Question: What about the Kd [4] of the same compound?
Answer: Its Kd is > 30 µM (inactive).

Question: And the Kd [5]?
Answer: The Kd was > 30 µM (inactive).

Question: What about the Kd (Midasin) of the same compound?
Answer: Its Kd is > 30 µM (inactive).

Question: And the Kd [6]?
Answer: The Kd was > 30 µM (inactive).

Question: What about the Kd [7] of the same compound?
Answer: Its Kd is > 30 µM (inactive).

Question: For O=C(Cc1ccc(-c2ccc(OCCN3CCOCC3)cc2)cn1)NCc1ccccc1 [TIRBANIBULIN], which Kd [1] is on record?
Answer: Its Kd is > 30 µM (inactive).

Question: And the Kd [2]?
Answer: Its Kd is > 30 µM (inactive).

Question: What about the Kd [3] of the same compound?
Answer: Its Kd is > 30 µM (inactive).

Question: What about the Kd (Ephrin type-A receptor 1) of the same compound?
Answer: Its Kd is > 30 µM (inactive).

Question: And the Kd [4]?
Answer: The Kd was > 30 µM (inactive).

Question: And the Kd [5]?
Answer: The Kd was > 30 µM (inactive).

Question: What about the Kd (Midasin) of the same compound?
Answer: Its Kd is > 30 µM (inactive).

Question: And the Kd [6]?
Answer: Its Kd is > 30 µM (inactive).

Question: What about the Kd [7] of the same compound?
Answer: Its Kd is > 30 µM (inactive).

Question: How did the Kd [1] turn out when C[C@@H](NC(=O)c1ncnc(N)c1Cl)c1ncc(C(=O)Nc2cc(C(F)(F)F)c(Cl)cn2)s1 [TOVORAFENIB] was run?
Answer: Its Kd is > 30 µM (inactive).

Question: What about the Kd [2] of the same compound?
Answer: Its Kd is > 30 µM (inactive).

Question: What about the Kd [3] of the same compound?
Answer: The Kd was > 30 µM (inactive).

Question: What about the Kd (Ephrin type-A receptor 1) of the same compound?
Answer: The Kd was 1.07 µM.

Question: What about the Kd [4] of the same compound?
Answer: The Kd was > 30 µM (inactive).

Question: And the Kd [5]?
Answer: The Kd was > 30 µM (inactive).

Question: What about the Kd (Midasin) of the same compound?
Answer: Its Kd is > 30 µM (inactive).

Question: What about the Kd [6] of the same compound?
Answer: The Kd was > 30 µM (inactive).

Question: What about the Kd [7] of the same compound?
Answer: Its Kd is > 30 µM (inactive).

Question: What does the source list for Cc1cc(Nc2ncnc3ccc(NC4=NC(C)(C)CO4)cc23)ccc1Oc1ccn2ncnc2c1 [TUCATINIB]?
Answer: Kd [1]: > 30 µM (inactive); Kd [2]: > 30 µM (inactive); Kd [3]: > 30 µM (inactive); Kd (Ephrin type-A receptor 1): > 30 µM (inactive); Kd [4]: > 30 µM (inactive); Kd [5]: > 30 µM (inactive); Kd (Midasin): > 30 µM (inactive); Kd [6]: > 30 µM (inactive); Kd [7]: > 30 µM (inactive)

Question: For CC(C)c1cc(CNc2nc(Nc3cc(C4CC4)[nH]n3)cc(N3CCN(C)CC3)n2)on1 [XL-228], which Kd [1] is on record?
Answer: The Kd was 0.118 µM (active).

Question: And the Kd [2]?
Answer: The Kd was 0.551 µM (active).

Question: What about the Kd [3] of the same compound?
Answer: The Kd was > 30 µM (inactive).

Question: What about the Kd (Ephrin type-A receptor 1) of the same compound?
Answer: The Kd was 0.005 µM (active).

Question: What about the Kd [4] of the same compound?
Answer: The Kd was > 30 µM (inactive).

Question: And the Kd [5]?
Answer: Its Kd is > 30 µM (inactive).

Question: What about the Kd (Midasin) of the same compound?
Answer: The Kd was > 30 µM (inactive).

Question: What about the Kd [6] of the same compound?
Answer: The Kd was > 30 µM (inactive).

Question: And the Kd [7]?
Answer: The Kd was > 30 µM (inactive).

Question: CN1C/C=C/CCOc2cccc(c2)-c2ccnc(n2)Nc2cccc(c2)C1 [ZOTIRACICLIB] was tested. Which Kd [1] did it give?
Answer: Its Kd is > 30 µM (inactive).

Question: What about the Kd [2] of the same compound?
Answer: Its Kd is 5.09 µM (active).

Question: What about the Kd [3] of the same compound?
Answer: Its Kd is > 30 µM (inactive).

Question: What about the Kd (Ephrin type-A receptor 1) of the same compound?
Answer: The Kd was > 30 µM (inactive).

Question: What about the Kd [4] of the same compound?
Answer: The Kd was > 30 µM (inactive).

Question: And the Kd [5]?
Answer: The Kd was > 30 µM (inactive).

Question: And the Kd (Midasin)?
Answer: Its Kd is > 30 µM (inactive).

Question: What about the Kd [6] of the same compound?
Answer: Its Kd is 0.996 µM (active).

Question: And the Kd [7]?
Answer: Its Kd is > 30 µM (inactive).
